Results: patent publication US9745295B2, “Thiazole-substituted aminoheteroaryls as spleen tyrosine kinase inhibitors” (Merck Sharp & Dohme Corp., priority 2013, dated 2017)

Each compound was assayed against T1, recombinant human GST-SYK (Homo sapiens, UniProt P43405) (assay: Homogeneous Time-Resolved Fluorescence (HTRF) assay for the recombinant human Syk enzyme). Details: recombinant human GST-SYK 5 pM, ATP 25 μM, read-out: rhSYK IC50.
T1 construct: purchased Carna Biosciences 08-176
Assay type: biochemical
Experimental: Homogeneous Time-Resolved Fluorescence (HTRF) Assay for the Recombinant Human Syk Enzyme
A recombinant GST-hSYK fusion protein was used to measure potency of compounds to inhibit human Syk activity. The recombinant human GST-SYK (Carna Biosciences #08-176) (5 pM final concentration) was incubated with various concentrations of the inhibitor diluted in DMSO (0.1% final concentration) for 10 minutes at room temperature in 15 mM Tris-HCl (pH 7.5), 0.01% tween 20, 2 mM DTT in 384 well plate format. To initiate the reaction the biotinylated substrate peptide (250 nM final concentration) that contains the phosphorylation site for Syk was added with magnesium (5 mM final concentration) and ATP (25 μM final concentration). Final volume of the reaction was 10 μL. Phosphorylation of the peptide was allowed to proceed for 45′ at room temperature. To quench the reaction and detect the phosphorylated product, 2 nM of a Europium-anti-phosphotyrosine antibody (Perkin Elmer #AD0161) and 70 nM SA-APC (Perkin-Elmer #CR130-100) were added together in 15 mM Tris pH 7.5, 40 mM EDTA, 0.01% tween 20. Final volume of the quenching solution was 10 μL.
The resulting HTRF signal was measured after 30 minutes on an EnVision (Perkin-Elmer) reader using a time-resolved fluorescence protocol. Table A below lists activities as IC50 values (nM) for representative compounds of the invention.
With Cc1cc(Nc2nccc(C(F)(F)F)n2)cc(-c2cnc(C3(O)CCC3)s2)n1 [Example 2.1, 1-(5-(6-Methyl-4-((4-(trifluoromethyl)pyrimidin-2-yl)amino)pyridin-2-yl)thiazol-2-yl)cyclobutanol] the IC50 was 26.4 nM. In the case of Cc1ccnc(Nc2ccc(-c3cnc(C4(O)CCC(C(=O)O)CC4)s3)cc2C)c1 (stereo not drawn) [Example 4.13, cis-4-hydroxy-4-(5-{3-methyl-4-[(4-methylpyridin-2-yl)amino]phenyl}-1,3-thiazol-2-yl)cyclohexanecarboxylic acid], the IC50 is reported as 43.6 nM. With COc1cc(Nc2cc(C)cc(-c3cnc(C4(O)CCC(C(=O)O)C(C)(C)C4)s3)n2)ncn1 (single isomer, unassigned) [Example 3.4, (1S,4R or 1R,4S)-4-hydroxy-4-(5-{6-[(6-methoxypyrimidin-4-yl)amino]-4-methylpyridin-2-yl}-1,3-thiazol-2-yl)-2,2-dimethylcyclohexane-carboxylic acid] the IC50 was 2.32 nM. Compound Cc1cc(Nc2nccc(C(F)(F)F)n2)cc(-c2cnc(C(C)(O)c3ccc(C(=O)O)cc3)s2)n1 (single isomer, unassigned) [Example 1.21, (R or S)-4-(1-hydroxy-1-(5-(6-methyl-4-((4-(trifluoromethyl)pyrimidin-2-yl)amino)pyridin-2-yl)thiazol-2-yl)ethyl)benzoic acid] has an IC50 of 5.91 nM. COc1cc(Nc2nccc(C)n2)cc(-c2cnc(C(C)(O)[C@H]3CC[C@H](C(=O)O)CC3)s2)n1 (single isomer, unassigned) [Example 4.22, (trans)-4-((R or S)-1-hydroxy-1-(5-{6-methoxy-4-[(4-methylpyrimidin-2-yl)amino]pyridin-2-yl}-1,3-thiazol-2-yl)ethyl]cyclohexane carboxylic acid] was tested, and the IC50 was 7.15 nM. Cc1cc(Nc2cc(C(F)(F)F)ncn2)nc(-c2cnc(C3(O)CCC(C(=O)O)C(C)(C)C3)s2)c1 (stereo not shown) [Example 1.2, 4-hydroxy-2,2-dimethyl-4-[5-(4-methyl-6-{[6-(trifluoromethyl)pyrimidin-4-yl]amino}pyridin-2-yl)-1,3-thiazol-2-yl]cyclohexane-carboxylic acid] was tested, and the IC50 was 1.17 nM. COC(=O)C1CCC(O)(c2ncc(-c3cc(Nc4nccc(OC(C)C)n4)cc(C)n3)s2)CC1(C)C (stereo not shown) [Example 1.15, methyl 4-hydroxy-2,2-dimethyl-4-[5-(6-methyl-4-{[4-(1-methylethoxy)pyrimidin-2-yl]amino}pyridin-2-yl)-1,3-thiazol-2-yl] cyclohexane-carboxylate] was tested, and the IC50 was 10.4 nM. In the case of Cc1cc(Nc2nccc(C(F)(F)F)n2)cc(-c2cnc(C3(O)CCCc4cc(C(=O)O)ccc43)s2)n1 (single isomer, unassigned) [Example 4.25, (R or S)-5-hydroxy-5-[5-(6-methyl-4-{[4-(trifluoromethyl)pyrimidin-2-yl]amino}pyridin-2-yl)-1,3-thiazol-2-yl]-5,6,7,8-tetrahydronaphthalene-2-carboxylic acid], the IC50 is reported as 0.397 nM. Compound COc1cc(Nc2cc(C)cc(-c3cnc([C@@]4(O)CC[C@H](C(N)=O)C(C)(C)C4)s3)n2)ncn1 (single isomer, unassigned) [Example 3.1, (1S,4R or 1R,4S)-4-Hydroxy-4-(5-{6-[(6-methoxypyrimidin-4-yl)amino]-4-methylpyridin-2-yl}-1,3-thiazol-2-yl)-2,2-dimethylcyclohexanecarboxamide] has an IC50 of 2.5 nM. With Cc1cc(Nc2cc(C(F)(F)F)ncn2)nc(-c2cnc(C3(O)CCC(C(=O)O)C(C)(C)C3)s2)c1 (single isomer, unassigned) [Example 1.6, (1S,4R or 1R,4S)-4-hydroxy-2,2-dimethyl-4-[5-(4-methyl-6-{[6-(trifluoromethyl)pyrimidin-4-yl]amino}pyridin-2-yl)-1,3-thiazol-2-yl] cyclohexane-carboxylic acid] the IC50 was 0.441 nM. Work on COc1cc(Nc2nccc(C(F)(F)F)n2)cc(-c2cnc(C3(O)CCC(C(=O)O)C(C)(C)C3)s2)n1 (single isomer, unassigned) [Example 4.18, (1S,4R or 1R,4S)-4-hydroxy-4-[5-(6-methoxy-4-{[4-(trifluoromethyl)pyrimidin-2-yl]amino}pyridin-2-yl)-1,3-thiazol-2-yl]-2,2-dimethylcyclohexane carboxylic acid] yielded an IC50 of 5.55 nM. Cc1cc(Nc2cc(C(F)(F)F)ccn2)nc(-c2cnc(C3(O)CCC3)s2)n1 [Example 4.5, 1-[5-(4-methyl-6-{[4-(trifluoromethyl)pyridin-2-yl]amino}pyrimidin-2-yl)-1,3-thiazol-2-yl]cyclobutanol] gave an IC50 of 4.39 nM. In the case of Cc1cc(Nc2nccnn2)cc(-c2cnc(C3(O)CCC3)s2)c1 [Example 3.2, 1-{5-[3-methyl-5-(1,2,4-triazin-3-ylamino)phenyl]-1,3-thiazol-2-yl}cyclobutanol], the IC50 is reported as 1010 nM. In the case of COC(=O)C1CCC(O)(c2ncc(-c3nc(C)cc(Nc4cc(C(F)(F)F)ccn4)n3)s2)CC1(C)C (stereo not shown) [Example 1.10, methyl 4-hydroxy-2,2-dimethyl-4-[5-(4-methyl-6-{[4-(trifluoromethyl)pyridin-2-yl]amino}pyrimidin-2-yl)-1,3-thiazol-2-yl]cyclohexane-carboxylate], the IC50 is reported as 8.85 nM. Compound Cc1cc(Nc2cc(C(F)(F)F)ncn2)nc(-c2cnc([C@@]3(O)CC[C@H](C(=O)O)[C@H](C)C3)s2)c1 (single isomer, unassigned) [Example 1.3, rel-(1S,2R,4R or S)-4-hydroxy-2-methyl-4-[5-(4-methyl-6-{[6-(trifluoromethyl)pyrimidin-4-yl]amino}pyridin-2-yl)-1,3-thiazol-2-yl] cyclohexane-carboxylic acid] has an IC50 of 0.938 nM. For Cc1cc(Nc2nccc(OC(C)C)n2)cc(-c2cnc(C3(O)CCC(C(=O)O)C(C)(C)C3)s2)n1 (stereo not shown) [Example 1.16, 4-hydroxy-2,2-dimethyl-4-[5-(6-methyl-4-{[4-(1-methylethoxy)pyrimidin-2-yl]amino}pyridin-2-yl)-1,3-thiazol-2-yl] cyclohexane-carboxylic acid], the IC50 was 0.697 nM. Cc1cc(Nc2cc(C3CCCCC3)ncn2)nc(-c2cnc(C3(O)CCCc4cc(C(=O)O)ccc43)s2)c1 (single isomer, unassigned) [Example 2.10, (R or S)-5-(5-{6-[(6-cyclohexylpyrimidin-4-yl)amino]-4-methylpyridin-2-yl}-1,3-thiazol-2-yl)-5-hydroxy-5,6,7,8-tetrahydronaphthalene-2-carboxylic acid] gave an IC50 of 1.12 nM. For Cc1cc(Nc2nccc(C(F)(F)F)n2)cc(-c2cnc(C(C)(O)c3ccc(C(=O)O)cc3)s2)n1 (single isomer, unassigned) [Example 1.20, (R or S)-4-(1-hydroxy-1-(5-(6-methyl-4-((4-(trifluoromethyl)pyrimidin-2-yl)amino)pyridin-2-yl)thiazol-2-yl)ethl)benzoic acid], the IC50 was 0.289 nM. Compound OC1(c2ncc(-c3cccc(Nc4cnccn4)n3)s2)CCC1 [Example 4.2, 1-{5-[6-(pyrazin-2-ylamino)pyridin-2-yl]-1,3-thiazol-2-yl}cyclobutanol] has an IC50 of 35.2 nM. CCCCOC(=O)[C@H]1CC[C@H](C(C)(O)c2ncc(-c3cc(Nc4nccc(C(F)(F)F)n4)cc(C)n3)s2)CC1 (single isomer, unassigned) [Example 4.6, butyl (trans)-4-((R or S)-1-hydroxy-[5-(6-methyl-4-{[4-(trifluoromethyl)pyrimidin-2-yl]amino}pyridin-2-yl)-1,3-thiazol-2-yl]ethyl}cyclohexane carboxylate] was tested, and the IC50 was 375 nM. Compound Cc1cc(-c2cnc(C3(O)CCC3)s2)nc(Nc2cc(C(F)(F)F)ccn2)n1 [Example 4.4, 1-[5-(6-methyl-2-{[4-(trifluoromethyl)pyridin-2-yl]amino}pyrimidin-4-yl)-1,3-thiazol-2-yl]cyclobutanol] has an IC50 of 43.4 nM. For CC1(C)CC(O)(c2ncc(-c3nccc(Nc4cc(C(F)(F)F)ccn4)n3)s2)CCC1C(=O)O (single isomer, unassigned) [Example 1.14, 4-hydroxy-2,2-(1S,4R or 1R,4S)-dimethyl-4-[5-(4-{[4-(trifluoromethyl)pyridin-2-yl]amino}pyrimidin-2-yl)-1,3-thiazol-2-yl] cyclohexane-carboxylic acid], the IC50 was 12.1 nM. Work on Cc1cc(Nc2nccc(C(F)(F)F)n2)cc(-c2cnc(C3(O)CCc4cc(C(=O)O)ccc43)s2)n1 [Example 4.26, (1R, or 1S)-1-hydroxy-1-[5-(6-methyl-4-{[4-(trifluoromethyl)pyrimidin-2-yl]amino}pyridin-2-yl)-1,3-thiazol-2-yl]-2,3-dihydro-1H-indene-5-carboxylic acid] yielded an IC50 of 0.0959 nM. Compound Cc1cc(Nc2cc(C(F)(F)F)ncn2)nc(-c2cnc([C@@]3(O)CC[C@H](C(N)=O)[C@H](C)C3)s2)c1 (relative stereo) [Example 1.19, rel-(1S,2R,4R or S)-4-hydroxy-2-methyl-4-[5-(4-methyl-6-{[6-(trifluoromethyl)pyrimidin-4-yl]amino}pyridin-2-yl)-1,3-thiazol-2-yl]cyclohexane-carboxamide] has an IC50 of 0.42 nM. CC1(C)CC(O)(c2ncc(-c3nccc(Nc4cc(C(F)(F)F)ccn4)n3)s2)CCC1C(=O)O (single isomer, unassigned) [Example 1.13, (1S,4R or 1R,4S)-4-hydroxy-2,2-dimethyl-4-[5-(4-{[4-(trifluoromethyl)pyridin-2-yl]amino}pyrimidin-2-yl)-1,3-thiazol-2-yl]cyclohexane-carboxylic acid] gave an IC50 of 0.564 nM.
